Results from patent US20080085871A1, “Novel polysaccharide pro-drug 5-fluorouracil (5-FU) with enhanced target specificity for colorectal cancer and its preparation methods” (priority 2006, published 2008).

Assays:
COLO-205 cell = assay: In vitro suppression of COLO-205 cell proliferation; assay type: cell-based; conditions: Homo sapiens, details not enclosed, read-out: IC50 for suppressing COLO-205 cell proliferation
Excerpt: (§1) However, it should be understood that the 5-FU prodrug exerts its efficacy after it is digested and hydrolyzed at the target sites in the body. Because it is a prodrug, it has no direct effect on in vitro colorectal cancer cell lines.

[1] = tested on: mice with colorectal cancer induced by DMH-DSS; assay: Therapeutic effects on mice with colorectal cancer induced by DMH-DSS; assay type: in vivo; conditions: 22.5 mg/kg/d equivalent 5-FU, two 7-day treatment periods with 7 days rest (21 days)
Excerpt: The doses delivered are equivalent with 1 time per day for 7 days as one treatment period, and then another period of treatment after 7 days of rest (i.e., a total of 21 days, two treatment periods with one week of rest in between).

HT-29 cell = assay: In vitro suppression of HT-29 cell proliferation; assay type: cell-based; conditions: Homo sapiens, details not enclosed, read-out: IC50 for suppressing HT-29 cell proliferation
Excerpt: as §1

normal mice = assay: Survival of normal mice after 7-day treatment (toxicological effects); assay type: in vivo; conditions: for Survival Rate (%) after 7-day Treatment / Survivors/total after 7-day Treatment: normal mice, n = 10
Method: Normal mice are administered with 7.5, 22.5, or 67.5 mg/kg/d of 5-FU and the 5-FU prodrug (as equivalent 5-FU dose). […]

[2] = Distribution of 5-FU in different parts of the GI tract after oral feeding to mice; assay type: in vivo; parameters: key to 5-FU (μg/g) Stomach / 5-FU (μg/g) Proximal Small Intestine / 5-FU (μg/g) Distal Small Intestine / 5-FU (μg/g) Ileum and Cecum / 5-FU (μg/g) Colon and Rectum: —: dashed lines represent undetectable levels of 5-FU; conditions: for 5-FU (μg/g) Colon and Rectum / 5-FU (μg/g) Distal Small Intestine / 5-FU (μg/g) Ileum and Cecum / 5-FU (μg/g) Proximal Small Intestine / 5-FU (μg/g) Stomach: oral 22.5 mg/kg, n = 6, x ± s
Excerpt: Note that the dashed lines represent undetectable levels of 5-FU.

[3] = 7.5 mg/kg/d (equivalent 5-FU dose)
[4] = 22.5 mg/kg/d (equivalent 5-FU dose)
[5] = 67.5 mg/kg/d (equivalent 5-FU dose)

Structure (SMILES): O=c1[nH]cc(F)c(=O)[nH]1 [Example 5-FU, 5-fluorouracil]
- IC50 (COLO-205 cell): 3.2 µM
- Survival at the End of the Study ([1]; n = 10): 5/10
- Survival Rate ([1]; n = 10, listed as Generic 5-Fluorouracil (5-FU)): 50%
- Survival Rate ([1]; n = 10, listed as generic 5-FU): 50%
- Tumor Weight Index ([1]; x ± s): 447 ± 113.5 mg/g
- Tumor Weight as Compared to the Saline Control ([1]; listed as Generic 5-Fluorouracil (5-FU)): 65%
- Tumor Weight as Compared to the Saline Control ([1]; listed as generic 5-FU): 65%
- IC50 (HT-29 cell): 13 µM
- Survival Rate (%) after 7-day Treatment (normal mice; [3]): 100%
- Survivors/total after 7-day Treatment (normal mice; [3]): (10/10)
- Survival Rate (%) after 7-day Treatment (normal mice; [4]): 70%
- Survivors/total after 7-day Treatment (normal mice; [4]): (7/10)
- Survival Rate (%) after 7-day Treatment (normal mice; [5]): 0%
- Survivors/total after 7-day Treatment (normal mice; [5]): (0/10)
- toxic effects in the first dose (normal mice; normal mice, 7.5, 22.5, or 67.5 mg/kg/d, first dose): no obvious toxic effects
- main site of distribution / detection in the GI tract ([2]; fed orally): mucosa of stomach and proximal part of the small intestine
- 5-FU (μg/g) Colon and Rectum ([2]; 1 hr): —
- 5-FU (μg/g) Distal Small Intestine ([2]; 1 hr): 0.42 ± 0.21 µg/g
- 5-FU (μg/g) Ileum and Cecum ([2]; 1 hr): —
- 5-FU (μg/g) Proximal Small Intestine ([2]; 1 hr): 1.75 ± 0.24 µg/g
- 5-FU (μg/g) Stomach ([2]; 1 hr): 3.04 ± 0.49 µg/g
- 5-FU (μg/g) Colon and Rectum ([2]; 2.5 hr): 0.25 ± 0.12 µg/g
- 5-FU (μg/g) Distal Small Intestine ([2]; 2.5 hr): 0.43 ± 0.24 µg/g
- 5-FU (μg/g) Ileum and Cecum ([2]; 2.5 hr): 0.37 ± 0.12 µg/g
- 5-FU (μg/g) Proximal Small Intestine ([2]; 2.5 hr): 0.64 ± 0.42 µg/g
- 5-FU (μg/g) Stomach ([2]; 2.5 hr): 1.97 ± 0.31 µg/g
- 5-FU (μg/g) Colon and Rectum ([2]; 3.5 hr): 0.41 ± 0.24 µg/g
- 5-FU (μg/g) Distal Small Intestine ([2]; 3.5 hr): 0.62 ± 0.12 µg/g
- 5-FU (μg/g) Ileum and Cecum ([2]; 3.5 hr): 0.42 ± 0.21 µg/g
- 5-FU (μg/g) Proximal Small Intestine ([2]; 3.5 hr): 0.53 ± 0.32 µg/g
- 5-FU (μg/g) Stomach ([2]; 3.5 hr): 1.12 ± 0.46 µg/g
- 5-FU (μg/g) Colon and Rectum ([2]; 4.5 hr): 0.56 ± 0.06 µg/g
- 5-FU (μg/g) Distal Small Intestine ([2]; 4.5 hr): 0.35 ± 0.21 µg/g
- 5-FU (μg/g) Ileum and Cecum ([2]; 4.5 hr): 0.37 ± 0.12 µg/g
- 5-FU (μg/g) Proximal Small Intestine ([2]; 4.5 hr): 0.42 ± 0.91 µg/g
- 5-FU (μg/g) Stomach ([2]; 4.5 hr): 0.97 ± 0.23 µg/g
- 5-FU (μg/g) Colon and Rectum ([2]; 6 hr): 0.17 ± 0.04 µg/g
- 5-FU (μg/g) Distal Small Intestine ([2]; 6 hr): 0.31 ± 0.09 µg/g
- 5-FU (μg/g) Ileum and Cecum ([2]; 6 hr): 0.21 ± 0.11 µg/g
- 5-FU (μg/g) Proximal Small Intestine ([2]; 6 hr): 0.37 ± 0.05 µg/g
- 5-FU (μg/g) Stomach ([2]; 6 hr): 0.63 ± 0.31 µg/g
- 5-FU (μg/g) Colon and Rectum ([2]; 9 hr): 0.08 ± 0.05 µg/g
- 5-FU (μg/g) Distal Small Intestine ([2]; 9 hr): 0.17 ± 0.06 µg/g
- 5-FU (μg/g) Ileum and Cecum ([2]; 9 hr): 0.03 ± 0.01 µg/g
- 5-FU (μg/g) Proximal Small Intestine ([2]; 9 hr): 0.17 ± 0.04 µg/g
- 5-FU (μg/g) Stomach ([2]; 9 hr): 0.33 ± 0.18 µg/g
- 5-FU (μg/g) Colon and Rectum ([2]; 12 hr): 0.05 ± 0.02 µg/g
- 5-FU (μg/g) Distal Small Intestine ([2]; 12 hr): 0.07 ± 0.04 µg/g
- 5-FU (μg/g) Ileum and Cecum ([2]; 12 hr): 0.04 ± 0.02 µg/g
- 5-FU (μg/g) Proximal Small Intestine ([2]; 12 hr): 0.03 ± 0.01 µg/g
- 5-FU (μg/g) Stomach ([2]; 12 hr): 0.06 ± 0.03 µg/g
- 5-FU (μg/g) Colon and Rectum ([2]; 15 hr): —
- 5-FU (μg/g) Distal Small Intestine ([2]; 15 hr): —
- 5-FU (μg/g) Ileum and Cecum ([2]; 15 hr): —
- 5-FU (μg/g) Proximal Small Intestine ([2]; 15 hr): —
- 5-FU (μg/g) Stomach ([2]; 15 hr): —
